The text below walks through data of ChEMBL document CHEMBL1201862, “PubChem BioAssay data set” (2004).

The structures appear in SMILES notation.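 Protocol summary: plate cells (96-well), add compound at 5 concentrations, incubate 48 h, interpolate endpoints linearly. GI50: concentration for 50% inhibition of growth.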 The source made the active and inactive calls. Cut-off read from the data, not from the text of the source: active = GI50 up to about 1.1 µM and inactive = higher.

Some test systems named below: OVCAR-5; MDA-MB-435; RXF 393; SR; K562; SNB-75; HOP-92; SF-268; CAKI-1; HT-29; A498; Hs-578T; U-251; NCI-H460; HL-60; OVCAR-3; COLO 205; HCC 2998; NCI/ADR-RES.
Holding throughout (assay): DTP human tumour cell line panel, 48 h

For `CN(C)CCCNc1cnc2cc3ccccc3cc2n1`, the GI50 in the assay with OVCAR-5 is 18.6 µM (inactive); in the assay with MDA-MB-435, 24.5 µM (inactive); in the assay with RXF 393, 21.6 µM (inactive); in the assay with SR it was 61.1 µM (inactive); in the assay on K562 it was 25.4 µM (inactive); in the assay with SNB-75 it was 23.7 µM (inactive). Besides, the GI50 with HOP-92 is 23.5 µM (inactive); with SF-268 it was 23.8 µM (inactive); with CAKI-1, 22.4 µM (inactive); with HT-29, 15 µM (inactive); in the assay with A498, 17.5 µM (inactive); in the assay on Hs-578T it was 32.1 µM (inactive). Besides, the GI50 in the assay with U-251 was 36.5 µM (inactive); with NCI-H460, 33.3 µM (inactive); in the assay with HL-60, 32.2 µM (inactive); in the assay on OVCAR-3 it was 17.6 µM (inactive); in the assay on COLO 205, 18.3 µM (inactive); in the assay with HCC 2998, 17.2 µM (inactive).
With `CC1SCc2nc3ccccc3n21` (stereo not given), the GI50 with OVCAR-5 is > 100 µM (inactive); in the assay on MDA-MB-435, > 100 µM (inactive); in the assay on RXF 393, > 100 µM (inactive); in the assay on K562 it was > 100 µM (inactive); in the assay with SNB-75 it was 0.284 µM (active); with HOP-92, > 100 µM (inactive). For the same molecule, the GI50 with SF-268, with CAKI-1, in the assay with HT-29, in the assay on A498, in the assay on Hs-578T and with U-251 was > 100 µM (inactive) each time. Also, the GI50 with NCI-H460, with HL-60, in the assay with OVCAR-3, with COLO 205, in the assay with NCI/ADR-RES and with HCC 2998 was > 100 µM (inactive) throughout.
Regarding `COc1cc(/N=N/N(C)C)c(C(C)c2c3cc(OC)c(OC)cc3cc[n+]2C)cc1OC` (stereo not given), the GI50 in the assay on OVCAR-5 is > 100 µM (inactive); in the assay on MDA-MB-435, 40.7 µM (inactive); in the assay with RXF 393, 17.6 µM (inactive); with K562 it was 18.1 µM (inactive); in the assay on SNB-75 it was 31.6 µM (inactive); in the assay with SF-268 it was 31.3 µM (inactive). For the same molecule, the GI50 in the assay with CAKI-1 was > 100 µM (inactive); in the assay on HT-29 it was 35.4 µM (inactive); in the assay on A498, > 100 µM (inactive); with Hs-578T, 63.5 µM (inactive); with U-251, 38.6 µM (inactive); with NCI-H460, 30.8 µM (inactive). Further, the GI50 in the assay on OVCAR-3 was 26.7 µM (inactive); in the assay on COLO 205, 14.8 µM (inactive); in the assay on NCI/ADR-RES, > 100 µM (inactive); with HCC 2998, 34.6 µM (inactive).
In the case of `O=c1nc2n3c4c(cccc4nc-2c(=O)[nH]1)CCC3`, the GI50 with OVCAR-5 was > 100 µM (inactive); with MDA-MB-435 it was 61.9 µM (inactive); in the assay with RXF 393, > 100 µM (inactive); in the assay with K562, > 100 µM (inactive); with SNB-75, > 100 µM (inactive); in the assay with SF-268 it was > 100 µM (inactive). For the same molecule, the GI50 in the assay with CAKI-1 is > 100 µM (inactive); with HT-29 it was 95.9 µM (inactive); with Hs-578T it was 28.2 µM (inactive); in the assay with U-251, > 100 µM (inactive); in the assay on NCI-H460 it was > 100 µM (inactive); in the assay on HL-60, 70.8 µM (inactive). Also, the GI50 was 14 µM (inactive) with OVCAR-3, 47 µM (inactive) with COLO 205, > 100 µM (inactive) in the assay with NCI/ADR-RES and > 100 µM (inactive) in the assay on HCC 2998.
`Nc1nnnn1CCO`: the GI50 in the assay with OVCAR-5, in the assay on MDA-MB-435, in the assay on RXF 393, in the assay with K562, in the assay on SNB-75 and in the assay on HOP-92 was > 100 µM (inactive) each time. Also, the GI50 in the assay with SF-268, with CAKI-1, with HT-29, with A498, in the assay on Hs-578T and in the assay with U-251 was > 100 µM (inactive) each time. For the same molecule, the GI50 with NCI-H460, in the assay with OVCAR-3, in the assay on COLO 205 and in the assay with NCI/ADR-RES was > 100 µM (inactive) in each case.
For `O=C1C2CCCC2N1Cc1ccccc1` (stereo not given), the GI50 in the assay on OVCAR-5 was > 100 µM (inactive); with MDA-MB-435, > 100 µM (inactive); in the assay with RXF 393, > 100 µM (inactive); in the assay on K562, > 100 µM (inactive); in the assay on SNB-75, 49.5 µM (inactive); with HOP-92 it was > 100 µM (inactive). For the same molecule, the GI50 in the assay with SF-268, with CAKI-1, in the assay with HT-29, in the assay with A498, in the assay with Hs-578T and in the assay with NCI-H460 was > 100 µM (inactive) each time. The GI50 in the assay with HL-60, in the assay on OVCAR-3, in the assay on COLO 205, in the assay on NCI/ADR-RES and with HCC 2998 was > 100 µM (inactive) each time.
On to `CCc1nc2ccc(/N=N/N(C)C)cc2[nH]1`, for which the GI50 in the assay with OVCAR-5 was > 100 µM (inactive); in the assay with MDA-MB-435 it was > 100 µM (inactive); with RXF 393 it was 45.3 µM (inactive); with K562, > 100 µM (inactive); with SNB-75, > 100 µM (inactive); in the assay on SF-268, > 100 µM (inactive). For the same molecule, the GI50 with CAKI-1, with HT-29, in the assay on Hs-578T, in the assay on U-251, in the assay on NCI-H460 and with OVCAR-3 was > 100 µM (inactive) throughout. In addition, the GI50 in the assay with COLO 205, with NCI/ADR-RES and in the assay on HCC 2998 was > 100 µM (inactive) in each case.
Turning to `CN(N)/N=N/c1[nH]cnc1[N+](=O)[O-]`, the GI50 is > 100 µM (inactive) in the assay with OVCAR-5; > 100 µM (inactive) in the assay on MDA-MB-435; > 100 µM (inactive) in the assay on RXF 393; 19.6 µM (inactive) in the assay with K562; > 100 µM (inactive) in the assay on SNB-75; 42.9 µM (inactive) in the assay with SF-268. Moreover, the GI50 in the assay on CAKI-1 was 20.8 µM (inactive); in the assay with HT-29, > 100 µM (inactive); in the assay on A498, > 100 µM (inactive); in the assay on Hs-578T, > 100 µM (inactive); in the assay on U-251, > 100 µM (inactive); in the assay with NCI-H460, > 100 µM (inactive). Moreover, the GI50 in the assay on HL-60 is 2.99 µM (inactive); with OVCAR-3, > 100 µM (inactive); with COLO 205, > 100 µM (inactive); in the assay on NCI/ADR-RES it was 35.4 µM (inactive); in the assay on HCC 2998, > 100 µM (inactive).
Take `CC(C)CCc1c(Cl)nc(Cl)nc1Cl`: the GI50 was 28.1 µM (inactive) with OVCAR-5; 6.18 µM (inactive) in the assay on MDA-MB-435; 3.89 µM (inactive) in the assay on RXF 393; 3.41 µM (inactive) with K562; 10 µM (inactive) with SNB-75; 17.6 µM (inactive) with SF-268. For the same molecule, the GI50 was 12.8 µM (inactive) with HT-29; 17.9 µM (inactive) with Hs-578T; 11.8 µM (inactive) in the assay on U-251; 15.5 µM (inactive) in the assay on NCI-H460; > 100 µM (inactive) in the assay on HL-60; 11.9 µM (inactive) in the assay with OVCAR-3. Moreover, the figures for the GI50 with NCI/ADR-RES and in the assay on HCC 2998 were 28.2 µM (inactive) and 16.5 µM (inactive), respectively.
In the case of `COC(=O)c1ccc(NCc2c(O)ccc(O)c2Br)cc1Cl`, the GI50 is 14.6 µM (inactive) with OVCAR-5; 13.6 µM (inactive) with MDA-MB-435; 1.78 µM (inactive) in the assay on K562; 23.1 µM (inactive) with SNB-75; 14.9 µM (inactive) in the assay on HOP-92; 17.4 µM (inactive) in the assay with SF-268. Besides, the GI50 with CAKI-1 is 15.8 µM (inactive); with HT-29 it was 20.7 µM (inactive); in the assay on A498 it was > 100 µM (inactive); in the assay with Hs-578T, 25.1 µM (inactive); with U-251, 16.7 µM (inactive); in the assay with NCI-H460, 18.7 µM (inactive). Also, the GI50 in the assay on HL-60 was 1.69 µM (inactive); in the assay with OVCAR-3, 8.77 µM (inactive); in the assay on COLO 205 it was 18.1 µM (inactive); in the assay with NCI/ADR-RES, 12.2 µM (inactive); in the assay on HCC 2998 it was 19.1 µM (inactive).
Regarding `CN(C)/N=C/c1cn(C)c(=O)n(C)c1=O`, the GI50 was > 100 µM (inactive) with OVCAR-5; > 100 µM (inactive) in the assay on MDA-MB-435; > 100 µM (inactive) in the assay on RXF 393; > 100 µM (inactive) in the assay with K562; 35.4 µM (inactive) in the assay with SNB-75; > 100 µM (inactive) in the assay with HOP-92. The GI50 in the assay with SF-268, in the assay with CAKI-1, in the assay on HT-29, with A498, in the assay with Hs-578T and with U-251 was > 100 µM (inactive) each time. Further, the GI50 in the assay on NCI-H460, in the assay with HL-60, in the assay with OVCAR-3, with COLO 205, in the assay with NCI/ADR-RES and in the assay on HCC 2998 was > 100 µM (inactive) in each case.
On to `Nc1cccc(OCC2CCCN3CCCCC23)c1` (stereo not given), for which the GI50 in the assay on OVCAR-5 is 17.7 µM (inactive); in the assay on MDA-MB-435, 22.5 µM (inactive); in the assay on RXF 393, 20.5 µM (inactive); in the assay with K562, 22 µM (inactive); in the assay with SNB-75, 16.7 µM (inactive); in the assay on HOP-92 it was 28.5 µM (inactive). Moreover, the GI50 was 20.1 µM (inactive) in the assay with SF-268; 17.6 µM (inactive) in the assay with CAKI-1; 12.6 µM (inactive) with HT-29; 14.4 µM (inactive) with A498; 16.7 µM (inactive) with Hs-578T; 24.4 µM (inactive) with U-251. Further, the GI50 in the assay on NCI-H460 is 19 µM (inactive); with HL-60, 20.1 µM (inactive); with OVCAR-3, 16.9 µM (inactive); in the assay on COLO 205 it was 19.5 µM (inactive); with NCI/ADR-RES, 19.3 µM (inactive); in the assay with HCC 2998, 13.7 µM (inactive).

The GI50 is the concentration giving 50% growth inhibition.
